Measured values as given in patent US6838574B1, “Dicarba-closo-dodecarborane derivatives” (Institute of Medicinal Molecular Design, Inc., priority 1999, dated 2005).

What was measured:
Type in all cases: cell-based
[1] = target: T1, rat estrogen receptor (pCI-rER α) (Rattus norvegicus, UniProt P06211); assay: Antiestrogenic activity, luciferase reporter gene assay with coexisting β-estradiol; conditions: for IC50: coexisting β-estradiol 1 × 10^−9M
T1 construct: expressed in transfected cells; host or cells: COS-1 cells
T1 sequence (P06211 1-600): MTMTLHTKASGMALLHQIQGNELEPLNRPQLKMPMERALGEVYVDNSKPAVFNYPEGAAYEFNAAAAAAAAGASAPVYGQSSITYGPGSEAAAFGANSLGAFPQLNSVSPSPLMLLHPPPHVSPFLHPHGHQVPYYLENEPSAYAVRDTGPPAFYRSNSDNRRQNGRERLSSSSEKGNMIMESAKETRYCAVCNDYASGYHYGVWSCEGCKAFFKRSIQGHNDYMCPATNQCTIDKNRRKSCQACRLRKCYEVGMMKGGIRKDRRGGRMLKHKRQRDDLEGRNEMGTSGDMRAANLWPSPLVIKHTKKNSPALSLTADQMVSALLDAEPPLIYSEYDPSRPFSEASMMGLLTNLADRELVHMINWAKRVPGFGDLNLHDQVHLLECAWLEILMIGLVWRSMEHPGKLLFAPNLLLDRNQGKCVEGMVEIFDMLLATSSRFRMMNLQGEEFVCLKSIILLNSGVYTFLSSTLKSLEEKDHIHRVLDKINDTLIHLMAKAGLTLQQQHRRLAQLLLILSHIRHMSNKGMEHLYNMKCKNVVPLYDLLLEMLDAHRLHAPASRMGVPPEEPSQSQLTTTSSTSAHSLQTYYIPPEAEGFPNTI
Protocol: As estrogenic activity, estrogen receptor-dependent transcriptional activation abilities of the test compounds were determined by the r porter gene assay using luciferase gene. COS-1 cells were cultured using a DMEM medium containing an antibiotics and 5% bovine fetal serum in the wells of 24 well plates (cell density: 5 to 6×10^4/well) at 37° C. for one night under 5% carbon dioxide. On the next day, the medium was changed to DMEM medium not containing Phenol Red. Using gene introducing reagent Tfx-20 (Promega), reporter plasmid EREx3-pGL-TK, in which rat estrogen receptor expression plasmid pCI-rER α and an estrogen responsive sequence were placed upstream of the luciferase gene, and β-galactosidase expression plasmid pCMV β used as an internal standard were introduced into cells. The cells were cultured for 2 h, and the medium was changed to DMEM not containing Phenol Red but containing active charcoal-treated serum.
The culture was added with each test compound dissolved in ethanol at various concentrations (final ethanol concentration at 0.5%) and then cultivation was continued at 37° C. for one night under 5% carbon dioxide. On the next day, the cells were lysed and enzymatic activity of luciferase expressed was measured by using a chemiluminometer. The values were standardized based on galactocidase enzymatic activity, and then compared with the values obtained by experiments using no test compound and used as values of activity at various concentrations. […] The estrogenic activities in the table are shown as concentrations for 50% activity (EC50 values) which give 50% activities relative to luciferase activity regarded as 100 that is expressed by treatment with the control compound β-estradiol at 10 nM. Each compound tested in this experiment has a high estrogenic activity.
As antiestrogenic activities, estrogen receptor-dependent transcriptional activation abilities of the test compounds were measured by the reporter gene assay using luciferase gene in the same manner as the estrogen activity measurement. In Table 7, antiestrogenic activities of test compounds are indicated as IC50 values as 50% inhibitory concentrations relative to the luciferase activity regarded as 100 which is expressed by β-estradiol at 1 nM coexisting in the experimental system. Each compound tested in this experiment has antiestrogenic activity.

[2] = tested on: human promyelocytic leukemia cell strain HL-60; assay: HL-60 differentiation with coexisting differentiation inducer Am80 (anti-differentiation activity); conditions: for percentage of differentiated cells, coexisting compound Am80: coexisting Am80 3.3 × 10^−10M, control 55
[3] = tested on: human promyelocytic leukemia cell strain HL-60; assay: HL-60 differentiation induction, test compound alone; conditions: for percentage of differentiated cells, no coexisting compound: HL-60, 4 days, control <10; for differentiation inducing activity at low concentration (in words): 0.01 μM test compound; for differentiation inducing activity at low concentration (in words) / differentiation inducing activity (in words): HL-60; for differentiation inducing activity (in words): test compound alone
Protocol: Inhibitory activity against proliferation of human promyelocytic leukemia cell strain HL-60 was evaluated an index of anti-leukemia activity. Subcultured HL-60 cells were seeded with the initial cell number of 8×10^4 cells/ml in the RPMI 1640 medium containing bovine fetal serum and an antibiotics. Each test compound was added at various concentrations and the mixture was cultured at 37° C. Four days later, cell number was counted. Anti-leukemia activity of each test compound was shown in the tables as percentage values of differentiated cells, which cells were not differentiated in the absence of the test drug, […] observation and NBT reducing ability of the cells as indexes.

[4] = tested on: human promyelocytic leukemia cell strain HL-60; assay: HL-60 differentiation with coexisting HX630 (enhancer of differentiation inducers); conditions: for percentage of differentiated cells, coexisting compound HX630: coexisting HX630 1 × 10^−7M, control <10; for differentiation inducing activity with HX630 (in words): coexisting HX630 (Table 3)
[5] = coexisting Am80 1×10^−9 M (Table 4)
[6] = test compound 1 μM, morphology and NBT reducing ability

1-(2-hydroxyphenyl)-12-(3-dimethylaminoethoxyphenyl)-1,12-dicarba-closo-dodecaborane [BR172]
IC50 [1]: 600 nM

1-(3-hydroxyphenyl)-2-(3-dimethylaminoethoxyphenyl)-1,2-dicarba-closo-dodecaborane [BR372]
IC50 [1]: 200 nM

1-(3-hydroxyphenyl)-7-(3-dimethylaminoethoxyphenyl)-1,7-dicarba-closo-dodecaborane [BR272]
IC50 [1]: 500 nM

1-(4-hydroxyphenyl)-2(4-dimethylamino-ethoxyphenyl)-1,2-dicarba-closo-dodecaborane [BR362]
antiestrogenic activity (in words) ([1]; coexisting β-estradiol 1 nM, tamoxifen as control): strong activity comparable to that of antiestrogenic drug tamoxifen
IC50 [1]: 30 nM

1-(4-hydroxyphenyl)-7-(4-dimethylaminoethoxyphenyl)-1,7-dicarba-closo-dodecaborane [BR262]
IC50 [1]: 200 nM

1-(4-hydroxyphenyl)-12-(4-dimethylaminoethoxyphenyl)-1,12-dicarba-closo-dodecaborane [BR162]
IC50 [1]: 10 nM

4-(2,3,4,5,6,7,8,9,10,11-decamethyl-1,12-dicarba-closo-dodecaborane-1-carbonylamino) benzoic acid [BR630]
anti-differentiation activity (in words) [2, 5]: remarkable anti-differentiation activities

4-(2,3,4,5,6,7,8,9,10,11-decamethyl-1,12-dicarba-closo-dodecaborane-1-carbonylamino) benzoic acid [BR635]
anti-differentiation activity (in words) [2, 5]: remarkable anti-differentiation activities

4-[2-(1,2-dicarba-closo-dododecaboran-1-yl)-(E)-ethenylcarboxamide]benzoic acid [BR110]
percentage of differentiated cells, coexisting compound Am80 ([2]; HL-60): 60%
percentage of differentiated cells, no coexisting compound [3, 6]: 12%
percentage of differentiated cells, coexisting compound HX630 ([4]; HL-60): 48%
differentiation inducing activity with HX630 (in words) [4]: differentiation inducing activities

4-[3-(2-methyl-1,2-dicarba-closo-dodecaboran-1-yl)phenylcarbamoyl]benzoic acid [BR251]
percentage of differentiated cells, coexisting compound Am80 ([2]; HL-60): 55%
percentage of differentiated cells, no coexisting compound [3, 6]: 8%
percentage of differentiated cells, coexisting compound HX630 ([4]; HL-60): 77%
differentiation inducing activity with HX630 (in words) [4]: differentiation inducing activities

4-[3-(2-propyl-1,2-dicarba-closo-dodecaboran-1-yl)phenylamino]benzoic acid [BR453]
differentiation inducing activity at low concentration (in words) [3]: activities were maintained
percentage of differentiated cells, no coexisting compound ([3]; test compound 0.01 μM): 80%
percentage of differentiated cells, no coexisting compound [3, 6]: 80%
differentiation inducing activity (in words) [3]: strong differentiation inducing activities

4-[4-(2-methyl-1,2-dicarba-closo-dodecaboran-1-yl) phenylamino]benzoic acid [BR401]
percentage of differentiated cells, coexisting compound Am80 ([2]; HL-60): 60%
differentiation inducing activity at low concentration (in words) [3]: activities were maintained
percentage of differentiated cells, no coexisting compound ([3]; test compound 0.01 μM): 26%
percentage of differentiated cells, no coexisting compound [3, 6]: 70%
differentiation inducing activity (in words) [3]: strong differentiation inducing activities
percentage of differentiated cells, coexisting compound HX630 ([4]; HL-60): 75%

4-[4-(2-methyl-1,2-dicarba-closo-dodecaboran-1-yl)-phenylcarbamoyl]benzoic acid [BR201]
percentage of differentiated cells, coexisting compound Am80 ([2]; HL-60): 5%
anti-differentiation activity (in words) ([2]; coexisting Am80 (Table 2)): strong anti-differentiation activity
percentage of differentiated cells, no coexisting compound [3, 6]: 11%
percentage of differentiated cells, coexisting compound HX630 ([4]; HL-60): 12%

4-[4-(2-propyl-1,2-dicarba-closo-dodecaboran-1-yl)phenylamino]benzoic acid [BR403]
differentiation inducing activity at low concentration (in words) [3]: activities were maintained
percentage of differentiated cells, no coexisting compound ([3]; test compound 0.01 μM): 84%
percentage of differentiated cells, no coexisting compound [3, 6]: 82%
differentiation inducing activity (in words) [3]: strong differentiation inducing activities

4-[[3-(1,2-Dicarba-closo-dodecaboran-1-yl)phenyl]carboxamide]benzoic acid [BR350]
percentage of differentiated cells, coexisting compound Am80 ([2]; HL-60): 60%
percentage of differentiated cells, no coexisting compound [3, 6]: 11%
percentage of differentiated cells, coexisting compound HX630 ([4]; HL-60): 48%
differentiation inducing activity with HX630 (in words) [4]: differentiation inducing activities

4-{N-methyl-[2-methyl-4-(2-methyl-1,2-dicarba-closo-dodecaboran-1-yl)]phenylamino}benzoic acid [BR431]
percentage of differentiated cells, coexisting compound Am80 ([2]; HL-60): 55%
percentage of differentiated cells, no coexisting compound [3, 6]: 10%
percentage of differentiated cells, coexisting compound HX630 ([4]; HL-60): 12%

4-{[4-(1,2-dicarba-closo-dodecaboran-1-yl)phenyl]carboxamide}benzoic acid [BR300]
percentage of differentiated cells, coexisting compound Am80 ([2]; HL-60): 37%
percentage of differentiated cells, no coexisting compound [3, 6]: 6%
percentage of differentiated cells, coexisting compound HX630 ([4]; HL-60): 8%

CC1(C)CCC(C)(C)c2cc(NC(=O)c3ccc(C(=O)O)cc3)ccc21 [Am80, 4-[(5,6,7,8-tetrahydro-5,5,8,8-tetramethyl-2-naphthalenyl)carbamoyl]benzoic acid, reference compound]
percentage of differentiated cells, control (Am80 without test compound) ([2]; Am80 3.3 × 10^−10M alone, HL-60): Am80 3.3 × 10^−10M (control: 55) %

CC1(C)CCC(C)(C)c2cc3c(cc21)Sc1ccccc1N=C3c1ccc(C(=O)O)cc1 [HX630, 4-[2,3-(2,5-dimethyl-2,5-hexano)dibenzo-[b,f]-[1,4]thiazepin-11-yl]benzoic acid, reference compound]
percentage of differentiated cells, control (HX630 without test compound) ([4]; HX630 1 × 10^−7M alone, HL-60): HX630 1 × 10^−7M (control: <10) %
